Source: patent US20260248852A1, “SYNTHETIC ANTIGEN RECEPTORS FOR COVALENT IMMUNE RECRUITERS AND METHODS AND USES THEREOF” (McMaster University, priority 2022, published 2026)
“Also recorded” adds a separate entry of the source.

How the values were obtained:
Assay type in all cases: cell-based, human
[1] = tested on: PSMA transduced HEK-293 cells; assay: CD69 upregulation of DNP-TAC T cells following stimulation with HEK-293 PSMA cells; details: DNP-TAC T cells pre labelled 6 hours; co-culture overnight
Procedure: The cells were co-cultured together overnight at 37 degrees. To stop the activation, 20 mM EDTA was added and incubated for 15 minutes. The cells were spun down, media was aspirated, and the cells were stored in 200 μL of cRPMI at 4 degrees prior to staining. The cells were stained with Live-Dead Zombie Aqua, anti-CD3 BV605, anti-CD4 Pacific Blue, anti-CD8 Alexa Fluor 700, anti-NGFR Viobright FITC, and anti-CD69 BV650. Upon staining the cells were run on the Beckman Coulter Cytoflex flow cytometer and analyzed for CD69 expression.

[2] = tested on: PSMA-positive LNCaP cells; assay: Anti-DNP GDT cell mediated killing of LNCaP cells (Incucyte)
Procedure: Measuring T cell mediated killing of LNCaP cells: LNCaP prostate cancer cells, which are prostate specific membrane antigen (PSMA) positive, were engineered with Nuclight Red lentivirus to produce cells with nuclear localized red fluorescence to allow for ease of imaging in these experiments. […] Samples were run in triplicate. The number of LNCaP cells per well at each time point was calculated using the Incucyte cell by cell analysis software and plotted. The area under the growth curve was used as a metric for tumor cell growth for this figure. The larger the area, the greater the tumor cell growth that occurred over the 3 days. The area under the curve for the LNCaP control and each condition were used to calculate the % cytotoxicity.

[3] = tested on: HEK293-WT cells; assay: Cytokine production of engineered ABT cells, controls with 293-WT cells or no tumor cells; details: Media+CIR; 293-WT+CIR
Procedure: (§1) Measuring cytokine production following stimulation with HEK-293 cells: In a 96 well round bottom plate, 4E5 HEK293-PSMA cells (PSMA expressing) or HEK293-WT cells were incubated with 4E5 Anti-DNP TAC ABT cells, Anti-DNP DAP12 SAR ABT cells, or Anti-CD28 CAR ABT-cells. […] To stop the activation 20 mM EDTA was added and incubated for 15 minutes. Cells were stained for surface expression of CD4 and CD8, fixed and permeabilized in Cytofix/Cytoperm buffer, and stained with APC-conjugated mouse anti-human interferon-gamma, and FITC-conjugated mouse anti-human tumor necrosis factor-alpha. Cells were then run on the Beckman Coulter Cytoflex flow cytometer. The percent of cells positive for tumor necrosis factor-alpha and interferon-gamma for CD4 and CD8 T-cell populations were graphed separately showing the same overall trends.

[4] = tested on: PSMA-positive LNCaP cells; assay: Anti-DNP TAC ABT cell mediated killing of LNCaP cells (Incucyte)
Procedure: Measuring T cell mediated killing of LNCaP cells: LNCaP prostate cancer cells, which are prostate specific membrane antigen (PSMA) positive, were engineered with Nuclight Red lentivirus to produce cells with nuclear localized red fluorescence to allow for ease of imaging in these experiments. […] The 3 components were co-cultured for 3 days with 4 images per well taken every 6 hours. Samples were run in triplicate. The number of LnCap cells per well at each time point was calculated using the Incucyte cell by cell analysis software and plotted. The area under the growth curve was used as a metric for tumor cell growth for this figure. The larger the area, the greater the tumor cell growth that occurred over the 3 days. The area under the curve for the LnCap control and each condition were used to calculate the % cytotoxicity.

[5] = tested on: 293-PSMA cells; assay: Proliferation of adapter functionalized engineered ABT cells (CellTrace Violet)
Procedure: Each engineered T cell was also cultured in media alone as a control to compare to. All proliferation assay samples were incubated for 3 days at 37° C. and 5% CO2. Cells were then stained with Live/Dead Fixable Near-IR stain, PerCP-Cy5.5-conjugated mouse anti-human CD8a, Alexa Fluor 700-conjugated mouse anti-human CD4, VioBright FITC-conjugated mouse anti-human NGFR, and BV605-conjugated mouse anti-human CD3. Flow cytometry data were acquired.

[6] = tested on: HEK293-PSMA cells (PSMA expressing); assay: Cytokine production of engineered ABT cells following stimulation with HEK293-PSMA cells
Procedure: as §1

[7] = tested on: 293-PSMA cells; assay: CD69 and Nur77 expression of activated ABT cells with 293-PSMA cells
Source text: (§2) Cells were stained for surface marker expression via Pacific Blue-conjugated mouse anti-human CD4, and AlexaFluor700-conjugated mouse anti-human CD8a, VioBright FITC-conjugated mouse anti-human NGFR, and anti-huCD69, fixed and permeabilized in Permiabilization concentrate diluted in permeabilization diluent, and stained intracellularly with PE-conjugated mouse anti-mouse Nur77.

[8] = tested on: 293-WT cells (do not express PSMA); assay: CD69 and Nur77 expression of ABT cells with 293-WT cells; details: engineered ABT cells, 100 nM
Source text: as §2

[9] = tested on: PSMA transduced HEK-293 cells; assay: IFN-gamma / TNF-alpha production of Anti-DNP TAC ABT cells following stimulation with HEK-293 PSMA cells; details: Anti-DNP TAC ABT cells prelabelled 6 hours; co-culture 4 hours
Procedure: The cells were co-cultured together for 4 hours at 37 degrees. Golgi plug was added prior to the co-incubation to prevent cytokine secretion. To stop the activation 20 mM EDTA was added and incubated for 15 minutes. The cells were spun down, media was aspirated, and the cells were stored in 200 μL of cRPMI overnight at 4 degrees. The next day, the cells were surface stained with anti-CD4 Pacific Blue, anti-CD8 Alexa Fluor 700, and anti-NGFR Viobright FITC. The cells were then fixed and permeabilized using a fix/perm buffer solution. The cells were then intracellularly stained with anti-CD3 BV605, anti-TNF-alpha PE-CY7, and anti-IFN-gamma APC. Cells were then run on the Beckman Coulter Cytoflex flow cytometer. The percent of cells positive for TNF-alpha and IFN-gamma, as well as cells positive for both were recorded in the table for the separate CD4 and CD8 T-cell populations.

[10] = tested on: uPAR-positive A172 cells; assay: Anti-DNP GDT cell mediated killing of A172 cells; details: Anti-DNP CD28 CAR GDT cells; E:T 8:1; 1, 10, 100 nM; 3 days
Procedure: Engineering GDT cells with Anti-DNP DAP12-SAR or Anti-DNP CD28 CAR: PBMC were seeded at 4E6 cells per well in a 24 well G-Rex plate in the presence of 1 ug/ml zoledronate and 1.5 ng/ml human IL2. Three days later, the cells were incubated overnight in a 24 well non tissue culture treated plate that was pre coated with retronectin and retrovirus supernatant containing viruses encoding the Anti-DNP DAP12-SAR or Anti-DNP CD28 CAR. The cells were then transferred back to the G-Rex plate and cultured for a further 11 days at which point, the cell product was collected, CD4/CD8 T cells were removed by magnetic selection and the purified engineered GDT cells were cryopreserved.
Measuring T cell mediated killing of A172 cells: A172 cells, which are urokinase type plasminogen activator receptor (uPAR) positive, were engineered with eGFP lentivirus to produce green fluorescent protein expressing cells. […] Also added to the wells were uPAR-CIR or uPAR-(N)CIR at a range of concentrations from 1 nM, 10 nM and 100 nM. […] Samples were run in triplicate. The green image mean of the wells at each time point was calculated using the Incucyte cell by cell analysis software and plotted to yield the following figures. […] For the analysis of killing by Anti-DNP CD28 CAR GDT cells, the area under the growth curve (AUC) was analyzed using PRISM Graphpad and to calculate the % cytotoxicity.

**Q.** How did the “T cell activation based on upregulation of CD69” value [1] turn out when `O=C(O)CC[C@H](NC(=O)N[C@@H](CCCCNC(=O)NCCOCCOCCOCCOCCOCCOCCOCCOC(=O)n1cnc(CCNC(=O)CNc2ccc([N+](=O)[O-])cc2[N+](=O)[O-])c1)C(=O)O)C(=O)O` [PSMA-CIR, DNP-Acyl Imidazole-Glutamate Urea Lysine] was run?
**A.** Its value is “PSMA-specific activation; also recorded: capable of stimulating Anti-DNP TAC T cell activation”.

**Q.** What about the “adapter concentration at which tumor killing is observed” value ([2]; Anti-DNP CD28 CAR GDT cells) of the same compound?
**A.** Its value is ≤ 15 nM.

**Q.** And the “killing of LNCaP cells” value ([2]; Anti-DNP CD28 CAR GDT cells, 125 nM adapter)?
**A.** The value was “could direct T cell cytotoxicity; also recorded: displayed tumor growth control”.

**Q.** And the “killing of LNCaP cells” value ([2]; Anti-DNP DAP12-SAR GDT cells, 125 nM adapter)?
**A.** Its value is “could trigger killing; also recorded: only suppressed tumor growth in the presence of the PSMA-CIR”.

**Q.** What about the “adapter concentration at which tumor killing is observed” value ([2]; Anti-DNP DAP12 SAR GDT cells) of the same compound?
**A.** Its value is ≤ 15 nM.

**Q.** What about the “killing of LNCaP cells after preincubation and wash” value ([2]; Anti-DNP DAP12 SAR and Anti-DNP CD28 CAR GDT cells, 1 uM adapter for 6 hours, washed, then co-culture) of the same compound?
**A.** The value was “retained the ability to kill LNCaP cells”.

**Q.** And the “killing of LNCaP cells” value ([2]; CD28 CAR GDT cells, 10 nM adapter)?
**A.** The value was “robust LNCaP killing”.

**Q.** And the “LNCaP killing over a range of concentrations” value ([2]; both Anti-DNP DAP12-SAR GDT cells and Anti-DNP CD28 CAR GDT cells, 15.6 nM-250 nM)?
**A.** The value was “sustained across all concentrations”.

**Q.** And the “cytokine production in controls” value [3]?
**A.** Its value is “the controls showed no cytokine production”.

**Q.** What about the “killing of LNCaP cells” value ([4]; E:T 8:1, 15.63 nM to 125 nM, 3 days) of the same compound?
**A.** The value was “could trigger killing; also recorded: promoted killing of the LNCaP cells at low nM concentrations”.

**Q.** What about the “concentration effective at engaging tumor killing” value ([4]; E:T 8:1, 3 days) of the same compound?
**A.** Its value is ≤ 15 nM.

**Q.** What about the “T cell proliferation, PSMA-CIR versus PSMA-(N)CIR” value ([5]; Anti-DNP CD28 CAR T cells) of the same compound?
**A.** Its value is “performed similarly”.

**Q.** What about the “T cell proliferation (percent divided)” value ([5]; Anti-DNP DAP12 SAR T cells, 1 nM, 10 nM, or 100 nM) of the same compound?
**A.** Its value is “robust proliferation”.

**Q.** And the “T cell proliferation (percent divided)” value ([5]; Anti-DNP TAC T cells, 1, 10, 100 nM, 3 days)?
**A.** The value was “only entered proliferation when co-cultured with 293-PSMA cells and 100 nM PSMA-CIR”.

**Q.** What about the “cytokine production, compared to PSMA-(N)CIR” value ([6]; CD28-CAR T cells, 1 nM, 10 nM) of the same compound?
**A.** Its value is “increased cytokine production at lower concentrations”.

**Q.** And the cytokine production ([6]; CD28-CAR T cells, highest concentration (100 nM))?
**A.** The cytokine production was “equivalent levels of cytokine production”.

**Q.** What about the cytokine production ([6]; DAP12-SAR T cells, 1, 10, 100 nM) of the same compound?
**A.** Its cytokine production is “strongest activation was mediated by the CIR”.

**Q.** And the cytokine production ([6]; TAC T cells, 1, 10, 100 nM)?
**A.** Its cytokine production is “only activated by the CIR”.

**Q.** And the “production of interferon-gamma and tumor necrosis factor-alpha” value ([6]; all three engineered receptors (TAC, DAP12-SAR, CD28-CAR) ABT cells, 1, 10, 100 nM)?
**A.** Its value is “target specific production of interferon-gamma and tumor necrosis factor-alpha; also recorded: Increased cytokine production”.

**Q.** What about the “T cell activation (Nur77, CD69), compared to PSMA-(N)CIR” value ([7]; Anti-DNP DAP12-SAR T cells, 10 nM and 1 nM) of the same compound?
**A.** Its value is “greater activation at both concentrations”.

**Q.** What about the “T cell activation (Nur77, CD69)” value ([7]; Anti-DNP TAC-T cells, 10 nM and 1 nM) of the same compound?
**A.** The value was “could elicit T cell activation”.

**Q.** And the “T cell activation (Nur77, CD69), compared to PSMA-(N)CIR” value ([7]; Anti-DNP-CD28 CAR T cells)?
**A.** The value was “much greater activation”.

**Q.** What about the “upregulation of Nur77 and CD69” value ([7]; TAC, DAP12-SAR and CD28-CAR ABT cells, 293-PSMA, 100 nM, 4 hours) of the same compound?
**A.** Its value is “Upregulation of Nur77 and CD69; also recorded: only occurred in the presence of CIR and PSMA-expressing target cells”.

**Q.** What about the “upregulation of Nur77 and CD69, CIR compared to (N)CIR” value ([7]; all engineered ABT cells, 293-PSMA, 10 nM and 1 nM) of the same compound?
**A.** The value was “stronger with CIR compared to (N)CIR; also recorded: increased activation and downstream signal strength”.

**Q.** What about the “Nur77 and CD69 (off-target activation)” value [8] of the same compound?
**A.** The value was “no increase of Nur77 or CD69 above the media-only control”.

**Q.** What about the “production of IFN-gamma and TNF-alpha” value [9] of the same compound?
**A.** Its value is “production of IFN-gamma and TNF-alpha”.

**Q.** For `CC(C)C[C@H](NC(=O)[C@H](Cc1ccc(O)cc1)NC(=O)[C@@H](CCCNC(=N)N)NC(=O)[C@@H](CO)NC(=O)[C@H](Cc1ccccc1)NC(=O)[C@H](CC1CCCCC1)NC(=O)[C@H](CC(=O)O)NC(=O)CNC(=O)[C@H](CO)NC(=O)CNC(=O)CNC(=O)[C@H](CCCCNc1ccc([N+](=O)[O-])cc1[N+](=O)[O-])NC(=O)c1cccc(S(=O)(=O)F)c1)C(=O)N[C@@H](Cc1c[nH]c2ccccc12)C(=O)N[C@@H](CO)C(=O)O` [uPAR-CIR, DNP-SuFEx-uPAR binding peptide], which “cytotoxicity towards A172 cells” value [10] is on record?
**A.** The value was “exhibited cytotoxicity; also recorded: can be redirected”.
